Measurements published in PubChem BioAssay (NCI).
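The compound was tested at five concentrations on cells cultured in 96-well plates, with a 48-hour exposure period. TGI marks complete inhibition of growth.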

Assays:
Assay in all cases: growth of human tumour cells (NCI), 48 h
[1] = system: 786-0 renal
[2] = system: A498 renal
[3] = system: A549 NSCLC
[4] = system: ACHN renal
[5] = system: CAKI-1 renal
[6] = system: CCRF-CEM leukemia
[7] = system: COLO 205 colon
[8] = system: DU-145 prostate
[9] = system: EKVX NSCLC
[10] = system: HCC-2998 colon
[11] = system: HCT-116 colon
[12] = system: HCT-15 colon
[13] = system: HL-60(TB) leukemia
[14] = system: HOP-62 NSCLC
[15] = system: HT29 colon
[16] = system: IGROV1 ovarian
[17] = system: K-562 leukemia
[18] = system: KM12 colon
[19] = system: LOX IMVI melanoma
[20] = system: M14 melanoma
[21] = system: MALME-3M melanoma
[22] = system: MCF7 breast
[23] = system: MDA-MB-231 breast
[24] = system: MDA-MB-435
[25] = system: MDA-N
[26] = system: MOLT-4 leukemia
[27] = system: NCI-H226 lung
[28] = system: NCI-H23 lung
[29] = system: NCI-H460 lung
[30] = system: NCI-H522 lung
[31] = system: NCI/ADR-RES ovarian
[32] = system: OVCAR-3 ovarian
[33] = system: OVCAR-4 ovarian
[34] = system: OVCAR-5 ovarian
[35] = system: OVCAR-8 ovarian
[36] = system: PC-3 prostate
[37] = system: RXF 393 renal
[38] = system: SF-268 CNS
[39] = system: SF-295 CNS
[40] = system: SF-539 CNS
[41] = system: SK-MEL-2 melanoma
[42] = system: SK-MEL-28 melanoma
[43] = system: SK-MEL-5 melanoma
[44] = system: SK-OV-3 ovarian
[45] = system: SN12C renal
[46] = system: SNB-19 CNS
[47] = system: SNB-75 CNS
[48] = system: SR leukemia
[49] = system: SW-620 colon
[50] = system: T-47D breast
[51] = system: TK-10 renal
[52] = system: U251 CNS
[53] = system: UACC-257 melanoma
[54] = system: UACC-62 melanoma
[55] = system: UO-31 renal

COc1ccc(/C=N/Nc2nc3ccccc3c(=O)n2-c2ccccc2)cc1
TGI [1]: > 100 µM
TGI [2]: > 100 µM
TGI [3]: > 100 µM
TGI [4]: > 100 µM
TGI [5]: > 100 µM
TGI [6]: > 100 µM
TGI [7]: > 100 µM
TGI [8]: > 100 µM
TGI [9]: > 100 µM
TGI [10]: > 100 µM
TGI [11]: > 100 µM
TGI [12]: > 100 µM
TGI [13]: > 100 µM
TGI [14]: > 100 µM
TGI [15]: > 100 µM
TGI [16]: > 100 µM
TGI [17]: > 100 µM
TGI [18]: > 100 µM
TGI [19]: > 100 µM
TGI [20]: > 100 µM
TGI [21]: > 100 µM
TGI [22]: 40.5 µM
TGI [23]: > 100 µM
TGI [24]: > 100 µM
TGI [25]: > 100 µM
TGI [26]: > 100 µM
TGI [27]: > 100 µM
TGI [28]: > 100 µM
TGI [29]: > 100 µM
TGI [30]: > 100 µM
TGI [31]: > 100 µM
TGI [32]: > 100 µM
TGI [33]: > 100 µM
TGI [34]: > 100 µM
TGI [35]: > 100 µM
TGI [36]: > 100 µM
TGI [37]: > 100 µM
TGI [38]: > 100 µM
TGI [39]: > 100 µM
TGI [40]: > 100 µM
TGI [41]: > 100 µM
TGI [42]: > 100 µM
TGI [43]: > 100 µM
TGI [44]: > 100 µM
TGI [45]: > 100 µM
TGI [46]: > 100 µM
TGI [47]: > 100 µM
TGI [48]: > 100 µM
TGI [49]: > 100 µM
TGI [50]: > 100 µM
TGI [51]: > 100 µM
TGI [52]: > 100 µM
TGI [53]: > 100 µM
TGI [54]: > 100 µM
TGI [55]: 14.9 µM
